Each structure is given as a SMILES string.

A word on the IC50: it is the midpoint of a concentration-inhibition curve.

For the experiment, the system named is HBsAg. As to the kind of experiment: HBsAg assay (CLIA of secreted HBsAg in HepG2.2.15 culture supernatant). In kind it is cell-based, HBV. The conditions noted are these: Hepatitis B virus, HepG2.2.15, read-out: IC50 (HBsAg assay). On the procedure:
HepG2.2.15 cells (Acs et al. Proc Natl Acad Sci USA, 84, (1987), 4641-4), a constitutively HBV-expressing cell line were cultured in DMEM+Glutamax-I medium (Invitrogen, Carlsbad, Calif., USA), supplemented with 10% fetal bovine serum (Invitrogen) and G418 (Invitrogen) at a final concentration of 200 mg/L and maintained in 5% CO2 at 37° C.
HepG2.2.15 cells were seeded in duplicate into white, 96-well plates at 1.5×10^4 cells/well. The cells were treated with a three-fold serial dilution series of the compounds in DMSO. The final DMSO concentration in all wells was 1% and DMSO was used as no drug control.
The HBsAg chemiluminescence immunoassay (CLIA) kit (Autobio Diagnostics Co., Zhengzhou, China, Catalog number: CL0310-2) was used to measure the levels of secreted HBV antigens semi-quantitatively. For the detection 50 μL/well culture supernatant was used and HBsAg was quantified using HBsAg chemiluminescence immunoassay (CLIA) kit (Autobio Diagnostics Co., Zhengzhou, China, Catalog number: CL0310-2), 50 μL of the supernatant was transferred to the CLIA assay plate and 50 μL of enzyme conjugate reagent was added into each well. The plates were sealed and gently agitated for 1 hour at room temperature. The supernatant-enzyme-mixture was discarded and wells were washed 6 times with 300 μL of PBS. The residual liquid was removed by plating the CLIA plate right side down on absorbent tissue paper. 25 μL of substrates A and B were added to each well. Luminance was measured using a luminometer (Mithras LB 940 Multimode Microplate Reader) after 10 minutes incubation. Dose-response curves were generated and the IC50 value was extrapolated by using the E-WorkBook Suite (ID Business Solutions Ltd., Guildford, UK). The IC50 was defined as the compound concentration at which HBsAg secretion was reduced by 50% compared to the no drug control.
`COCCOc1ccc(C(=O)N2CCc3nc(-c4ccccn4)ncc3C2)cc1F` [Example 14, [3-Fluoro-4-(2-methoxyethoxy)phenyl]-[2-(2-pyridyl)-7,8-dihydro-5H-pyrido[4,3-d]pyrimidin-6-yl]methanone]: the IC50 came out at 20 µM.

`COCCCOc1ccc(C(=O)N2CCc3nc(-c4ccccn4)ncc3C2)cc1F` [Example 15, [3-Fluoro-4-(3-methoxypropoxy)phenyl]-[2-(2-pyridyl)-7,8-dihydro-5H-pyrido[4,3-d]pyrimidin-6-yl]methanone]: the IC50 amounted to 4.89 µM.

Turning to `COc1cc(C(=O)N2CCc3nc(-c4ccccn4)ncc3C2)cc(OC)c1OC` [Example 16, [2-(2-Pyridyl)-7,8-dihydro-5H-pyrido[4,3-d]pyrimidin-6-yl]-(3,4,5-trimethoxyphenyl)methanone], the IC50 amounted to 8.23 µM.

`CCOc1cc(OCC)cc(C(=O)N2CCc3nc(-c4ccccn4)ncc3C2)c1` [Example 17, (3,5-Diethoxyphenyl)-[2-(2-pyridyl)-7,8-dihydro-5H-pyrido[4,3-d]pyrimidin-6-yl]methanone]: the IC50 was 7.66 µM.

Regarding `COc1cc(Cl)cc(C(=O)N2CCc3nc(-c4ccccn4)ncc3C2)c1` [Example 18, (3-Chloro-5-methoxy-phenyl)-[2-(2-pyridyl)-7,8-dihydro-5H-pyrido[4,3-d]pyrimidin-6-yl]methanone], the IC50 came to 10 µM.

For `COc1cc(OC)cc(C(=O)N2CCc3nc(-c4ccccn4)ncc3C2)c1` [Example 19, (3,5-Dimethoxyphenyl)-[2-(2-pyridyl)-7,8-dihydro-5H-pyrido[4,3-d]pyrimidin-6-yl]methanone], the IC50 was 8.99 µM.

With `Cc1cc(C(=O)N2CCc3nc(-c4ccccn4)ncc3C2)ccc1F` [Example 20, (4-Fluoro-3-methyl-phenyl)-[2-(2-pyridyl)-7,8-dihydro-5H-pyrido[4,3-d]pyrimidin-6-yl]methanone], the IC50 worked out at 7.85 µM.

With `COc1ccc(C(=O)N2CCc3nc(-c4ccccn4)ncc3C2)cc1Cl` [Example 21, (3-Chloro-4-methoxy-phenyl)-[2-(2-pyridyl)-7,8-dihydro-5H-pyrido[4,3-d]pyrimidin-6-yl]methanone], the IC50 amounted to 5.07 µM.

Take `COc1ccc(C(=O)N2CCc3nc(-c4ccccn4)ncc3C2)cc1OC` [Example 22, (3,4-Dimethoxyphenyl)-[2-(2-pyridyl)-7,8-dihydro-5H-pyrido[4,3-d]pyrimidin-6-yl]methanone]: the IC50 is 28 µM.

On to `O=C(c1ccc(O)c(Cl)c1)N1CCc2nc(-c3ccccn3)ncc2C1` [Example 23, (3-chloro-4-hydroxy-phenyl)-[2-(2-pyridyl)-7,8-dihydro-5H-pyrido[4,3-d]pyrimidin-6-yl]methanone], for which the IC50 came out at 21.2 µM.

Regarding `COCCCOc1ccc(C(=O)N2CCc3nc(-c4ccccn4)ncc3C2)cc1Cl` [Example 24, [3-Chloro-4-(3-methoxypropoxy)phenyl]-[2-(2-pyridyl)-7,8-dihydro-5H-pyrido[4,3-d]pyrimidin-6-yl]methanone], the IC50 is 3.18 µM.

For the compound `COc1cc(C(=O)N2CCc3nc(-c4ccccn4)ncc3C2)ccc1O` [Example 25, (4-Hydroxy-3-methoxy-phenyl)-[2-(2-pyridyl)-7,8-dihydro-5H-pyrido[4,3-d]pyrimidin-6-yl]methanone], the IC50 stood at 34.3 µM.

As for `COCCCOc1ccc(C(=O)N2CCc3nc(-c4ccccn4)ncc3C2)cc1OC` [Example 26, [3-Methoxy-4-(3-methoxypropoxy)phenyl]-[2-(2-pyridyl)-7,8-dihydro-5H-pyrido[4,3-d]pyrimidin-6-yl]methanone], the IC50 worked out at 3.18 µM.

As to `Cc1ccc(C(=O)N2CCc3nc(-c4ccccn4)ncc3C2)nc1` [Example 27, (5-Methyl-2-pyridyl)-[2-(2-pyridyl)-7,8-dihydro-5H-pyrido[4,3-d]pyrimidin-6-yl]methanone], the IC50 came to 24.2 µM.

Turning to `Cc1ccc(C(=O)N2CCc3nc(-c4ccccn4)ncc3C2)cc1F` [Example 28, (3-Fluoro-4-methyl-phenyl)-[2-(2-pyridyl)-7,8-dihydro-5H-pyrido[4,3-d]pyrimidin-6-yl]methanone], the IC50 is 9.34 µM.

The record behind these values is patent US10968217B2, “Tetrahydropyridopyrimidines for the treatment and prophylaxis of hepatitis B virus infection” (Hoffmann-La Roche Inc., priority 2016, dated 2021).
